Literature values as cited in patent US20240000694A1, “Methods and Materials for Matching Chemistry of Individuals and Human Melanin” (Northwestern University, priority 2022, published 2024).

N[C@@H](CSSC[C@H](N)C(=O)O)C(=O)O [cystine]
pKa of —COOH: 1.91
